One series concerns gastric acid secretion. The series can be described thus: gastric acid secretion-inhibiting effect, Shay's method (pylorus-ligated rats). It is filed as in vivo, rat (female H-Wistar). The conditions noted are these: Rattus norvegicus. The procedure:
According to this method female H-Wistar rats weighing 120 to 150 g were starved in latticed cages for 24 hours. The animals received water ad libitum. Then their pylorus was ligated under a slight ether anaesthesia. The test compounds were administered during the surgical intervention. After 4 hours the animals were killed by ether narcosis. After excision of the stomach the volume and pH value of the gastric content were measured. In several cases the hydrochloric acid content was determined by titration.

The test system of series [1] is gastric ulcers induced in rats by indomethacine. The series can be described thus: inhibition of gastric ulcers induced by indomethacine in rats. It is filed as in vivo, rat. The conditions noted are these: 50 mg/kg oral dose, ulcers induced by 40 mg/kg s.c. indomethacine. The procedure: An 50 mg/kg oral dose of 1-benzyl-2-(cyanoimino)pyridine inhibits the development of gastric ulcers induced in rats by 40 mg/kg subcutaneous (s.c.) dose of indomethacine (chemically [1-(4-chlorobenzoyl)-2-methyl-5-methoxyindol-3-yl]acetic acid) by 100%.

The next series relates to rats. The conditions noted are these: rat, in vivo, po, 120 mg/kg.
[2] abbreviates: Shay's method, female H-Wistar rats 120 to 150 g, starved 24 hours, pylorus ligated, 4 hours, given during the surgical intervention, read-out: ED50.

Like-named read-outs stand apart in the source and are kept apart here.

Turning to `N#CN=c1ccccn1Cc1cccc(Cl)c1` [1-(3-chlorobenzyl)-2-(cyanoimino)pyridine], the ED50 with gastric acid secretion (setting [2]) was 9.88 mg/kg.

As to `N#CN=c1ccccn1Cc1ccc(F)cc1` [2-(cyanoimino)-1-(4-fluorobenzyl)pyridine], the median effective dose (ED50) in the series with gastric acid secretion (setting [2]) amounted to 8.36 mg/kg. Regarding `N#CN=c1ccccn1Cc1ccccc1` [1-benzyl-2-(cyanoimino)pyridine], the ED50 in the series with gastric acid secretion (setting [2]) turned out to be 3.26 mg/kg. The “inhibition of the development of gastric ulcers” value in series [1] is 100%. Further, in the series with rats, the toxic symptom result is given as “No toxic symptom”. Turning to `CN=C(NC#N)NCCSCc1nc[nH]c1C` [cimetidine, 1-cyano-2-methyl-3-[2-[[(5-methylimidazol-4-yl)methyl]thio]ethyl]-guanidine, reference compound], the ED50 with gastric acid secretion (po, 4 h, read-out: oral ED50) came to 50 mg/kg.

Take `N#CN=c1ccccn1Cc1ccccc1Cl` [1-(2-chlorobenzyl)-2-(cyanoimino)pyridine]: in the series on gastric acid secretion (setting [2]), the ED50 came to 1.8 mg/kg.

Consider `O=[N+]([O-])N=c1ccccn1Cc1ccccc1` [1-benzyl-2-(nitroiminopyridine, 1-benzyl-2-(nitroimino)pyridine], for which the median effective dose (ED50) with gastric acid secretion (setting [2]) turned out to be 13.6 mg/kg. Same read-out and setting: with `N#CN=c1ccccn1Cc1ccccc1F` [2-(cyanoimino)-1-(2-fluorobenzyl)pyridine] the figure was 4.3 mg/kg; with `Cc1ccccc1Cn1ccccc1=NC#N` [2-(cyanoimino)-1-(2-methylbenzyl)pyridine], 11.7 mg/kg. On the same count and under the same terms, with `N#CN=c1ccccn1Cc1cccc(C(F)(F)F)c1` [2-(cyanoimino)-1-(3-trifluoromethylbenzyl)pyridine] the figure was 12.2 mg/kg.

The record behind these values is patent US5155123A, “Pyridine derivatives and pharmaceutical compositions containing them” (Richter Gedeon Vegyeszeti Gyar R.T., priority 1989, dated 1992).
